Patent publication US4952591A, “Anti-ulcer urea derivatives” (Kyorin Pharmaceutical Co., Ltd., priority 1987, dated 1990)

Legend:
[1] = test system: 0.6 N HCl-induced gastric lesions; assay: Gastric cytoprotection (0.6 N HCl-induced gastric lesions); type: in vivo, Male Donryu rats; settings: p.o., an hour before 0.6 N HCl, lesion length
Description: Male Donryu rats, weighing about 200 g, were deprived of food and water for 24 hours. One ml of 0.6N HCl solution was given orally and the animals were killed an hour later. […] The length (mm) of each gastric lesion was measured under a dissecting microscope, summed, and used as an index for evaluation. Drugs were orally given an hour before 0.6 N HCl solution treatment.

[2] = test system: Gastric secretion (acid output); assay: Gastric antisecretion (Acute fistula method, histamine-stimulated, pylorus-ligated rats); type: in vivo, Male Donryu rats; settings: i.d., histamine 10 mg/kg i.m.
Description: Male Donryu rats, weighing about 200 g, were fasted for 24 hours before the experiment. […] The gastric cannula was implanted in the forestomach (Acute fistula method). Gastric secretion from cannula was collected into test tubes every one hour and the acid output was titrated. Histamine (10 mg/kg) was intramuscularly given after the first collection of gastric juice. Drugs were intraduodenally given after the second collection of the gastric juice.

Histamine H2-receptor = target: T1, Histamine H2-receptor (Cavia porcellus, UniProt P47747); assay: Histamine H2-receptor antagonism (isolated right atrium, positive chronotropic effect of histamine); set-up: species or system Male Hartley guinea-pigs; settings: guinea-pig right atrium, 32±1° C., drugs added 5 minutes before histamine; read-out: pA2 (converted)
T1 construct: The right atrium was dissected and suspended at 0.5 g tension in a 10 ml organ bath; from tissue; host or cells: isolated right atrium of male Hartley guinea-pigs
Description: Male Hartley guinea-pigs, weighing between 300 and 400 g, were used in the experiment. The right atrium was dissected and suspended at 0.5 g tension in a 10 ml organ bath containing Krebs-Henseleit's solution, kept at 32±1° C. and bubbled with the gas mixture (95 % O2 and 5 % CO2). Contractions were recorded with a force-displacement transducer through a strain gange. […] Drugs were added into the organ bath 5 minutes before histamine treatment.

T1 sequence (P47747 whole entry): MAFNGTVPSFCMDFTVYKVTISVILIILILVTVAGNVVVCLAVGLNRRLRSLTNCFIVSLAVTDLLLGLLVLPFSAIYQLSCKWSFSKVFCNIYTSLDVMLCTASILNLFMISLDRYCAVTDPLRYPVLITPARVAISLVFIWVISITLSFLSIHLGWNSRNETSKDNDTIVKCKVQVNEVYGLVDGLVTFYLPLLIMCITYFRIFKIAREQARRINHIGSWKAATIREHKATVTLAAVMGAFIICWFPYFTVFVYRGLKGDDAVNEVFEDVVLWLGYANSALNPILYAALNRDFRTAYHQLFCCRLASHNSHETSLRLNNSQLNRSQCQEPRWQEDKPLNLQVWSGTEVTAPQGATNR

SMILES | Inhibition (%) ([1]; Dose 50 mg/kg) | Inhibition (%) ([2]; Dose 25 mg/kg) | Kb (Histamine H2-receptor) | Inhibition (%) ([1]; Dose 6 mg/kg) | Inhibition (%) ([1]; Dose 25 mg/kg) | Inhibition (%) ([2]; Dose 5 mg/kg) | also measured
CCOc1ccc(NC(=O)NCCCOc2cccc(CN3CCCCC3)c2)cc1 [Example 51, N-(4-Ethoxyphenyl)-N'-[3-(3-piperidinomethylphenoxy)propyl]urea] | 63.4% | 97.1% | 251 nM | – | – | – | Inhibition (%) ([2]; Dose 1 mg/kg): 29.0%; Inhibition (%) ([2]; Dose 6 mg/kg): 52.7%
CCCNC(=O)NCCCOc1cccc(CN2CCCCC2)c1 [Example 8] | – | – | 41.7 nM | 55.4% | – | – | Inhibition (%) ([1]; Dose 1 mg/kg): 26.4%; Inhibition (%) ([1]; Dose 16 mg/kg): 67.4%; Inhibition (%) ([2]; Dose 1 mg/kg): 49.5%; Inhibition (%) ([2]; Dose 3 mg/kg): 77.5%; Inhibition (%) ([2]; Dose 6 mg/kg): 81.3%
CC(C)NC(=O)NCCCOc1cccc(CN2CCCCC2)c1 [Example 54] | 70.1% | – | 27.5 nM | 36.1% | 73.0% | 68.2% | Inhibition (%) ([2]; Dose 2 mg/kg): 16.1%; Inhibition (%) ([2]; Dose 10 mg/kg): 78.8%
CNC(=O)NC/C=C\COc1cccc(CN2CCCCC2)c1 [Example 29] | – | – | 35.5 nM | – | 73.8% | 80.8% | Inhibition (%) ([1]; Dose 5 mg/kg): 49.3%; Inhibition (%) ([2]; Dose 3 mg/kg): 39.1%
COc1ccc(NC(=O)NCCCOc2cccc(CN3CCCCC3)c2)cc1 [Example 1, N-(4-Methoxyphenyl)-N'-[3-(3-piperidinomethylphenoxy)propyl]urea] | 45.1% | 98.5% | 263 nM | – | 30.1% | – | Inhibition (%) ([1]; Dose 100 mg/kg): 67.4%; Inhibition (%) ([2]; Dose 12.5 mg/kg): 70.7%
CN/C(=N/CCSCc1nc[nH]c1C)NC#N [Cimetidine, reference compound] | – | 80.0% | – | – | – | – | Inhibition (%) ([1]; Dose 100 mg/kg): 22.0%; Inhibition (%) ([2]; Dose 12.5 mg/kg): 51.9%; Inhibition (%) ([2]; Dose 50 mg/kg): 100.0%
CCNC(=O)NCCCOc1cccc(CN2CCCCC2)c1 [Example 16, N-Ethyl-N'-[3-(3-piperidinomethylphenoxy)propyl]urea] | 89.4% | – | 66.1 nM | 52.6% | 78.0% | 49.5% | Inhibition (%) ([2]; Dose 10 mg/kg): 77.2%
